Experimental data published in patent US8278469B2, “17-hydroxy-17-pentafluoroethyl-estra-4,9(10)-dien-11-aryl derivatives, method of production thereof and use thereof for the treatment of diseases” (Bayer Pharma Aktiengesellschaft, priority 2009, dated 2012).

What was measured:
[1] = Metabolic stability in human liver microsomes (HLM); format: in vitro ADME; details: HLM 0.5 mg/ml protein, 1 μM, 37° C., pH 7.4; well-stirred model, phase I reactions
Experimental: Metabolic Stability of (11β,17β)-17-hydroxy-11-[4-(methylsulphonyl)phenyl]-17-(pentafluoroethyl)estra-4,9-dien-3-one and (11β,17β)-17-hydroxy-11-[4′-(methylsulphonyl)-biphenyl-4-4-yl]-17-(pentafluoroethyl)estra-4,9-dien-3-one in Human Liver Microsomes (HLM)
Isolated human liver microsomes (HLM) were used for assessing the metabolic stability of compounds of general formula I.
Incubations were carried out with 2.4 ml of HLM solution (0.5 mg/ml protein content), 30 μl of the test compound (final concentration 1 μM) and 0.6 ml of the cofactor mixture (=NADPH-generating system of 3 IU glucose-6-phosphate dehydrogenase, 14.6 mg glucose-6-phosphate, 1.2 mg NADP) at 37° C. in 100 mM phosphate buffer at pH 7.4. Samples are taken at 6 time points (2-60 min), precipitated with an equal volume of methanol and the recovery of the test substances used in the supernatant is determined by LC-MS/MS analysis. The intrinsic clearance of the substance in the liver microsome preparation can be calculated from the half-life found for the breakdown of the substance. Based on this, together with various physiological characteristics according to the well-stirred model, it is then possible to predict a (metabolic) in vivo clearance with respect to phase I reactions. […]

[2] = target: T1, human progesterone receptor B (PR-B) (Homo sapiens, UniProt P06401); test: Progesterone receptor-antagonistic action in stable transfectants of SK-N-MC cells with human PR-B and MTV-LUC reporter; format: cell-based; details: antagonistic efficacy against 0.1 nmol/l promegestone, SK-N-MC cells, 24 hours; read-out: Progesterone receptor B (PR-B) Efficacy
T1 construct: expressed in transfected cells; host or cells: SK-N-MC human neuroblastoma cells, stably transfected with pRChPR-B-neo and pMMTV-LUC
T1 sequence (P06401 1-933): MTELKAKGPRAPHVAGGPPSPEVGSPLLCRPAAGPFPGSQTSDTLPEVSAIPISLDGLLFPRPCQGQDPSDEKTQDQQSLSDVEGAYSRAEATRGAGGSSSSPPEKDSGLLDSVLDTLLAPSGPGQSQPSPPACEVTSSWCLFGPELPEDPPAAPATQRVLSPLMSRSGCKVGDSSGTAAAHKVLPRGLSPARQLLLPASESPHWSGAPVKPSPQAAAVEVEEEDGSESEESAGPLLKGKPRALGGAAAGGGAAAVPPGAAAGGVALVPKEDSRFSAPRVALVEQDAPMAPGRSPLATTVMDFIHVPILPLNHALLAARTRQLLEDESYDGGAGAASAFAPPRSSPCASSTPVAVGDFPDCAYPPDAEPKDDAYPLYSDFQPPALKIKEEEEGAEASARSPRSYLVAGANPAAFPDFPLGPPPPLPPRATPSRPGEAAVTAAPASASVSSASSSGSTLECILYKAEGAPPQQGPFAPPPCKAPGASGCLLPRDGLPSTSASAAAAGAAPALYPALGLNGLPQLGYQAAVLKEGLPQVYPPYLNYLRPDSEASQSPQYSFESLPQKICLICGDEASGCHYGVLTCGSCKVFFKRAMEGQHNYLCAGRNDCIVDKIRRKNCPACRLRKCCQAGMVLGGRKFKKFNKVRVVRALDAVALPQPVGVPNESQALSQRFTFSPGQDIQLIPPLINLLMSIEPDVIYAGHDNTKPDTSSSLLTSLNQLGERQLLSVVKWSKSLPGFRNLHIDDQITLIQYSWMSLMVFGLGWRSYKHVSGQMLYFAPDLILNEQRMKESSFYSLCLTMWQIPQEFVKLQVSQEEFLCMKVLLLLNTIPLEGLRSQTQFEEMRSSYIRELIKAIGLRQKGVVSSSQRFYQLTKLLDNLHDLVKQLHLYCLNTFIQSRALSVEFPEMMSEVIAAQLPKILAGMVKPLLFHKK
Experimental: (§1) Progesterone Receptor-Antagonistic Action in Stable Transfectants of Human Neuroblastoma Cells (SK-N-MC Cells) with the Human Progesterone A or Progesterone B Receptor and an MTV-LUC Reporter Construct
(§2) SK-N-MC cells (human neuroblastoma cells), which have been stably transfected with plasmids, which express the human progesterone receptor B (pRChPR-B-neo) or the human progesterone receptor A (pRChPR-A-neo) and a reporter construct (pMMTV-LUC), were incubated for 24 hours either in the absence (negative control) or in the presence of increasing amounts of the respective test compound (0.01 nmol/l, 0.1 nmol/l, 1 nmol/l, 10 nmol/l, 100 nmol/l and 1 μmol/l), in order to determine the agonistic efficacy. As positive control of reporter gene induction, the cells were treated with the synthetic gestagen promegestone (0.01 nmol/l, 0.1 nmol/l, 1 nmol/l, 10 nmol/l, 100 nmol/l and 1 μmol/l). For determination of the antagonistic activity, the cells were treated with 0.1 nmol/l promegestone and additionally with increasing amounts of the respective test compound (0.01 nmol/l, 0.1 nmol/l, 1 nmol/l, 10 nmol/l, 100 nmol/l and 1 μmol/l). The activity of the LUC reporter gene (LUC=luciferase) was determined in the cell lysates and was measured as RLU (relative light units). All measured values are given as percentage efficacy and as EC50 or IC50 concentrations.
(§3) 11β-(4-Acetylphenyl)-20,20,21,21,21-pentafluoro-17-hydroxy-19-nor-17α-pregna-4,9-dien-3-one and 20,20,21,21,21-pentafluoro-17-hydroxy-11β-[4-(hydroxyacetyl)phenyl]-19-nor-17α-pregna-4,9-dien-3-one, very potent and therefore preferred examples from WO98/34947 and WO2008/058767, were tested as comparative compounds along with the test compound.

[3] = target: T2, human progesterone receptor A (PR-A) (Homo sapiens, UniProt P06401); test: Progesterone receptor-antagonistic action in stable transfectants of SK-N-MC cells with human PR-A and MTV-LUC reporter; format: cell-based; details: antagonistic efficacy against 0.1 nmol/l promegestone, SK-N-MC cells, 24 hours; read-out: Progesterone receptor A (PR-A) Efficacy
T2 construct: expressed in transfected cells; host or cells: SK-N-MC human neuroblastoma cells, stably transfected with pRChPR-A-neo and pMMTV-LUC
T2 sequence (P06401 1-769 isoform P06401-2): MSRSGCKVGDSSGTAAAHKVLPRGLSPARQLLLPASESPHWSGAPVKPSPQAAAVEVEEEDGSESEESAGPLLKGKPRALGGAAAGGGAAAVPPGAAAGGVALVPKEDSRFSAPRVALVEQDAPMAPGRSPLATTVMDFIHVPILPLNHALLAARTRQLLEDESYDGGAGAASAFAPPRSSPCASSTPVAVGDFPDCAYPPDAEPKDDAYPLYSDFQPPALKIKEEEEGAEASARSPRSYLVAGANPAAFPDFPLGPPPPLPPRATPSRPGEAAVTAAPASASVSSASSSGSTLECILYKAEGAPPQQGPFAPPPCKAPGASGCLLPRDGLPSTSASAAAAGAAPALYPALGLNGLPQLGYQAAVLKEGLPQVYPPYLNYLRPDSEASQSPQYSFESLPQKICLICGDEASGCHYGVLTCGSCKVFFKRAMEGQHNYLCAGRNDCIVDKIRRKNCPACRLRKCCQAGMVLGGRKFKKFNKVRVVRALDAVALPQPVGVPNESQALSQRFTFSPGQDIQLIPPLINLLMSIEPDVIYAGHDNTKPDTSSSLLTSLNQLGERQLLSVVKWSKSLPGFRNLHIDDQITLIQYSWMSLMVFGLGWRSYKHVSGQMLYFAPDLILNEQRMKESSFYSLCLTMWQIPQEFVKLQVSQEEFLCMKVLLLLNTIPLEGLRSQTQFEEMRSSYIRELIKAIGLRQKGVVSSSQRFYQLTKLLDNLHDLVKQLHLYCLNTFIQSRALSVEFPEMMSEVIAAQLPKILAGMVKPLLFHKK
Experimental: as §1, §2, §3

SMILES | (metabolic) in vivo clearance in humans predicted [1] [mL/min/kg] | Emax [2] [%] | Emax [3] [%]
C[C@]12C[C@H](c3ccc(-c4ccc(S(C)(=O)=O)cc4)cc3)C3=C4CCC(=O)C=C4CC[C@H]3[C@@H]1CC[C@@]2(O)C(F)(F)C(F)(F)F [Example 10, (11β,17β)-17-hydroxy-11-[4′-(methylsulphonyl)biphenyl-4-yl]-17-(pentafluoroethyl)estra-4,9-dien-3-one] | < 0.17 | 100 | 100
CN(C)S(=O)(=O)c1ccc([C@H]2C[C@@]3(C)[C@@H](CC[C@@]3(O)C(F)(F)C(F)(F)F)[C@@H]3CCC4=CC(=O)CCC4=C32)cc1 [Example 15, 4-[(11β,17β)-17-Hydroxy-3-oxo-17-(pentafluoroethyl)estra-4,9-dien-11-yl]-N,N-dimethylbenzene sulphonamide] |  | 100 | 100
